Laboratory results published in US7195918B2 (priority 2003, dated 2007).

Key:
[1] = system: A. succinogenes 130Z cells harboring pLGZ921 and pLGZ922; experiment: Growth of plasmid-harboring A. succinogenes 130Z on TS-agar plates with tetracycline or chloramphenicol; assay type: cell-based, Actinobacillus succinogenes
Text: Expression of Tet^R and Cm^R in A. succinogenes. We need several markers to conveniently engineer A. succinogenes. One can be used to label a gene deletion, while another one can be used to select for the maintenance of a recombinant gene on a plasmid replicon. To determine whether, once expressed, Cm^R and Tet^R could be used as selective markers in A. succinogenes, the Tn9 Cm^R and Tn10 Tet^R genes were cloned into pLGZ920 under control of the A. succinogenes pckA promoter, yielding plasmids pLGZ921 and pLGZ922, respectively. After electroporation, A. succinogenes 130Z cells harboring pLGZ921 and pLGZ922 were spread on TS-agar (30 g/l TS, 10 g/l glucose) plates containing variable amounts of tetracycline and chloramphenicol (FIG. 9). Strains […] plated on chloramphenicol plates and […] plated on tetracycline plates were used as the negative controls. […] In contrast, strain […] grew on plates containing up to 5.0 μg/ml tetracycline. Chloramphenicol-sensitive 130Z(pLGZ921) strain grew on plates containing up to 0.4 μg/ml […], but not on plates containing higher chloramphenicol concentrations. Strain […] grew on plates containing up to 5.0 μg/ml chloramphenicol.

[2] = system: A. succinogenes 130Z; experiment: Antibiotic minimum inhibitory concentrations: growth of A. succinogenes 130Z in liquid medium A with antibiotics; assay type: cell-based, Actinobacillus succinogenes; conditions: 37° C.; for antibiotic concentration in whose presence no growth was detected / antibiotic concentration in whose presence A. succinogenes 130Z grew perfectly well / antibiotic concentration in whose presence very slow growth was observed: 7 days, OD660; for OD660 after 7 days culture: 5 μg/ml antibiotic
Description: Antibiotic minimum inhibitory concentrations. To determine the sensitivity of A. succinogenes 130Z to antibiotics, the growth of A. succinogenes 130Z was tested in medium A (liquid medium) containing a series of antibiotics commonly used in bacteriology. One ml of 130Z preculture was inoculated into 9 ml of medium A containing each antibiotic and incubated at 37° C. for 7 days. Cell growth was followed by measuring OD660.
Resistance of A. succinogenes to antibiotics. A. succinogenes 130Z grew perfectly well in the presence of 50 μg/ml kanamycin or 30 μg/ml streptomycin. […] No growth was detected in the presence of 10 μg/ml ampicillin, 1 μg/ml chloramphenicol, 5 μg/ml tetracycline, or 10 μg/ml erythromycin. A. succinogenes is sensitive to low concentrations of ampicillin, chloramphenicol, erythromycin, and tetracycline, so the corresponding resistance genes (i.e., Amp^R, Cm^R, Tet^R, and Ery^R) could be used as selection markers on plasmids used to transform A. succinogenes. We discovered that the Tn3 Amp^R gene carried by pGZRS-19 is naturally expressed in A. succinogenes.

SMILES | antibiotic concentration up to which strain 130Z(pLGZ922) grew on plates [1] | antibiotic concentration in whose presence no growth was detected [2] [µg/mL] | antibiotic concentration in whose presence A. succinogenes 130Z grew perfectly well [2] [µg/mL] | OD660 after 7 days culture [2] | antibiotic concentration in whose presence very slow growth was observed [2] [µg/mL]
CN(C)[C@@H]1C(O)=C(C(N)=O)C(=O)[C@@]2(O)C(O)=C3C(=O)c4c(O)cccc4[C@@](C)(O)[C@H]3C[C@@H]12 [tetracycline] | up to 1.0 μg/ml | 5 |  |  | 
O=C(N[C@H](CO)[C@H](O)c1ccc([N+](=O)[O-])cc1)C(Cl)Cl [chloramphenicol] |  | 1 |  |  | 
NC[C@H]1O[C@H](O[C@H]2[C@H](O)[C@@H](O[C@H]3O[C@H](CO)[C@@H](O)[C@H](N)[C@H]3O)[C@H](N)C[C@@H]2N)[C@H](O)[C@@H](O)[C@@H]1O [kanamycin] |  |  | 50 |  | 
[H]/N=C(/N)N[C@H]1[C@H](O)[C@@H](O)[C@H](O[C@@H]2O[C@@H](C)[C@](O)(C=O)[C@H]2O[C@@H]2O[C@@H](CO)[C@H](O)[C@@H](O)[C@@H]2NC)[C@@H](N/C(N)=N\[H])[C@@H]1O [streptomycin] |  |  | 30 |  | 
CC[C@H]1OC(=O)[C@H](C)[C@@H](O[C@H]2C[C@@](C)(OC)[C@@H](O)[C@H](C)O2)[C@H](C)[C@@H](O[C@@H]2O[C@H](C)C[C@H](N(C)C)[C@H]2O)[C@](C)(O)C[C@@H](C)C(=O)[C@H](C)[C@@H](O)[C@]1(C)O [erythromycin] |  | 10 |  | approximately 0.05 | 5
CC1(C)S[C@@H]2[C@H](NC(=O)[C@H](N)c3ccccc3)C(=O)N2[C@H]1C(=O)O [ampicillin] |  | 10 |  | approximately 0.05 | 5
